# From paper PMC7044277 (Nature Communications, 2020)
# “And” between values parts separate entries of the source, which are not always exact repeats. Identical values can stand only once.
# Key:
# Type in all cases: cell-based
# [1] = target: T1, 320 non-olfactory GPCRs (Homo sapiens, UniProt Q86SQ4)
# T1 construct: expressed in transfected cells; host or cells: HTLA cells
# [2] = target: 320 non-olfactory GPCRs (Homo sapiens, UniProt P21462)
# [3] = target: T2, 320 non-olfactory GPCRs (Homo sapiens, UniProt P41968); conditions: receptor MC3Rb; replicate values, Fig_4g
# T2 construct: expressed in transfected cells; host or cells: HTLA cells
# [4] = target: T3, 320 non-olfactory GPCRs (Homo sapiens, UniProt Q96P66)
# T3 construct: expressed in transfected cells; host or cells: HTLA cells
# 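For Fold of Basal in this document: compound tested at 1 µM final concentration.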
# 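For GPCRome agonism screen response in this document: fold over basal response of each receptor without drug.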
# T1 sequence (Q86SQ4 38-1221): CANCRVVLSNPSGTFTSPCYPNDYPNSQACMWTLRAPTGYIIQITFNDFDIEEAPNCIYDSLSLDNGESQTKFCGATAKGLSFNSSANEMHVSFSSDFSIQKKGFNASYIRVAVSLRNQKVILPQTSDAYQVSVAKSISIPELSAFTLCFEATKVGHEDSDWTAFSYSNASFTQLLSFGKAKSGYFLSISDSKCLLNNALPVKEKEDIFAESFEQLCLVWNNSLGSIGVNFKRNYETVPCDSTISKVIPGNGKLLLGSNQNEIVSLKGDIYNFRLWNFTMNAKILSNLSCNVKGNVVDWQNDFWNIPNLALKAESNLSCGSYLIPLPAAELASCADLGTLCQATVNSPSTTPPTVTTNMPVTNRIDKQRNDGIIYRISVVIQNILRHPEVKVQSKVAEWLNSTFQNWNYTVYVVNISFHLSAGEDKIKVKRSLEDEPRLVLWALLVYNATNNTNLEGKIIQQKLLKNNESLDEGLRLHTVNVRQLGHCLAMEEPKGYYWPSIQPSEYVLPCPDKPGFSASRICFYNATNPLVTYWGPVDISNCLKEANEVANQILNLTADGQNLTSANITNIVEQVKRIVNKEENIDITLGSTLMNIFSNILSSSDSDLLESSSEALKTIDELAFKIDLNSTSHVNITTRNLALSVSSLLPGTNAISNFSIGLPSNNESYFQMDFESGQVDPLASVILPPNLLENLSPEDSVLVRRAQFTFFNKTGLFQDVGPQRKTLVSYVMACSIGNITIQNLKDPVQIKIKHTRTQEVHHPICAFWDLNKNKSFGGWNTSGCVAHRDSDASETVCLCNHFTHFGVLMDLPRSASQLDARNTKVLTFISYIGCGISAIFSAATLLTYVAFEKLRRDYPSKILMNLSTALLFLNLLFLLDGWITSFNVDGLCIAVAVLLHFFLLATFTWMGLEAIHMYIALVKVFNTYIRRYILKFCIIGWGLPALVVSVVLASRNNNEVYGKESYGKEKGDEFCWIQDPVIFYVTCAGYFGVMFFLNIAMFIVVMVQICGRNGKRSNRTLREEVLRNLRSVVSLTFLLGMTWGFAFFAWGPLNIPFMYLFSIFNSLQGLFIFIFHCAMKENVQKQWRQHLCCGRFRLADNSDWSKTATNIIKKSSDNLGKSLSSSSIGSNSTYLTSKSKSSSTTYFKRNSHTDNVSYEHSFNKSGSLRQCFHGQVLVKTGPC
# T3 sequence (Q96P66 whole entry): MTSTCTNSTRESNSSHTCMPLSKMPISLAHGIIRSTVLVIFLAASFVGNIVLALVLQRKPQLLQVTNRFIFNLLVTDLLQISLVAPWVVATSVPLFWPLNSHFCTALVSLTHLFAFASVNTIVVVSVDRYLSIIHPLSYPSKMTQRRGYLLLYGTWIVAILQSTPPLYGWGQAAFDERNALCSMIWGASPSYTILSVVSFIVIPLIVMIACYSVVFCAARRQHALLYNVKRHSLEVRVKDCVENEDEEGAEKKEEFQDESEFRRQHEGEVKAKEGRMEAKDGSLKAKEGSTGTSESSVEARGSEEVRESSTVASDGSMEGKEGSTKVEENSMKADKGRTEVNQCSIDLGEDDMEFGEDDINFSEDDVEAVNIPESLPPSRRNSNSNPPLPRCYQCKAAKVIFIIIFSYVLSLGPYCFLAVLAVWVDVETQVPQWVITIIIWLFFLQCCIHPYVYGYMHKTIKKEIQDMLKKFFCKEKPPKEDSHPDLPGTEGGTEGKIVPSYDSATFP
# Chain of 320 non-olfactory GPCRs (Homo sapiens, UniProt P21462) (P21462 whole entry): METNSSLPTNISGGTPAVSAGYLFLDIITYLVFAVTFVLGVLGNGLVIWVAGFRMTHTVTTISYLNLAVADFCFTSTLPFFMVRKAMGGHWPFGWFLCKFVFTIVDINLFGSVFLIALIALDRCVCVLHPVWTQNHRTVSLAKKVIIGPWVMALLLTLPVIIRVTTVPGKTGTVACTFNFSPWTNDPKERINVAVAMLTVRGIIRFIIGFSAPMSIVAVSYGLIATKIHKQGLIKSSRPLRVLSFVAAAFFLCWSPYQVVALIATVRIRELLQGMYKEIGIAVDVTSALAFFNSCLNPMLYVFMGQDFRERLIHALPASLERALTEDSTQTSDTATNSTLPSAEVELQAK
# T2 sequence (P41968 whole entry): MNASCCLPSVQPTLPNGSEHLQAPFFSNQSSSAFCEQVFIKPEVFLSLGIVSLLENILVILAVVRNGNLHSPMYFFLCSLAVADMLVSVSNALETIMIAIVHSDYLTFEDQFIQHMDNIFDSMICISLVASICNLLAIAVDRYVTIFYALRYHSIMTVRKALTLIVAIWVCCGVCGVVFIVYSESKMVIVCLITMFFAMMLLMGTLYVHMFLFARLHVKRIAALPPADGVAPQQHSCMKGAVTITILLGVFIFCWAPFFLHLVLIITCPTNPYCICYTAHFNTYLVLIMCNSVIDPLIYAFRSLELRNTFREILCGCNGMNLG
compound,measurement,setting,value
CCOc1cccc2cc(C(C)NCC3(O)CCCCC3)oc12 (stereo not shown) [O4LE6],Fold of Basal,[1],0.5649 and 0.8908 and 0.7066 and 0.464
same,Fold of Basal,[2],0.6589 and 0.3791 and 0.4925 and 0.3481
same,GPCRome agonism screen response,[3],1.102 and 1.23 and 1.725 and 1.228
same,Fold of Basal,[4],1.216 and 1.226 and 0.7864 and 1.078
